Columns and labels:
Format in all cases: in vivo
[1] = tested on: barnyardgrass (Echinochloa crus-galli); assay: Test C pre-/postemergence greenhouse test, plant response rating 0-100
In short: (§1)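 Visual rating vs controls after 13–15 d greenhouse; 0 = no effect, 100 = complete control. Pre: seeds in loam/sand, treated at planting. Post: seedlings 2–18 cm (1–4 leaf) in peat-based mix. Compounds in surfactant-containing non-phytotoxic solvent.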

[2] = tested on: waterhemp (common waterhemp, Amaranthus rudis); assay: as above
In short: as §1

[3] = tested on: goosegrass (Eleusine indica); assay: Test C postemergence greenhouse test, plant response rating 0-100
In short: (§2)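 Postemergence spray onto 1–4-leaf potted seedlings, greenhouse incubation 13–15 days. Visual percent-control rating (0–100) against untreated plants.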

[4] = tested on: downy bromegrass (Bromus tectorum); assay: as above; conditions: for Plant response rating, Bromegrass, Downy: scale 0 to 100
In short: as §2

[5] = tested on: deadnettle (henbit deadnettle, Lamium amplexicaule); assay: as above
In short: as §2

[6] = tested on: windgrass (Apera spica-venti); assay: as above
In short: as §2

[7] = tested on: green foxtail (Setaria viridis); assay: as above
In short: as §2

[8] = tested on: cocklebur (common cocklebur, Xanthium strumarium); assay: as above; conditions: 31 g ai/ha
In short: as §2

[9] = tested on: woolly cupgrass (Eriochloa villosa); assay: as above
In short: as §2

[10] = tested on: surinam grass (Brachiaria decumbens); assay: as above
In short: as §2

[11] = tested on: canarygrass (Phalaris minor); assay: as above
In short: as §2

[12] = tested on: winter barley (Hordeum vulgare); assay: as above; conditions: for Plant response rating, Barley: scale 0 to 100
In short: as §2

[13] = tested on: bermudagrass (Cynodon dactylon); assay: as above; conditions: for Plant response rating, Bermudagrass: scale 0 to 100
In short: as §2

[14] = Postemergence, 250 g ai/ha, scale 0 to 100

SMILES: O=C(c1cncc(F)c1)c1c[nH]nc1-c1cc(Cl)cc(Cl)c1 [Compound 19]
- Plant response rating (0 to 100), Barnyardgrass ([1]; Postemergence, 31 g ai/ha): 0
- Plant response rating (0 to 100), Barnyardgrass ([1]; Postemergence, 62 g ai/ha): 0
- Plant response rating, Barnyardgrass ([1]; Postemergence, 125 g ai/ha, scale 0 to 100): 0
- Plant response rating, Barnyardgrass [1, 14]: 0
- Plant response rating, Barnyardgrass ([1]; Preemergence, 31 g ai/ha): 0
- Plant response rating, Barnyardgrass ([1]; Preemergence, 62 g ai/ha): 0
- Plant response rating, Barnyardgrass ([1]; Preemergence, 125 g ai/ha): 0
- Plant response rating, Barnyardgrass ([1]; Preemergence, 250 g ai/ha): 0
- Plant response rating (0 to 100), Waterhemp ([2]; Postemergence, 62 g ai/ha): 65
- Plant response rating (0 to 100), Waterhemp ([2]; Postemergence, 125 g ai/ha): 80
- Plant response rating, Waterhemp [2, 14]: 95
- Plant response rating, Waterhemp ([2]; Preemergence, 62 g ai/ha): 100
- Plant response rating, Waterhemp ([2]; Preemergence, 125 g ai/ha): 100
- Plant response rating, Waterhemp ([2]; Preemergence, 250 g ai/ha): 100

SMILES: Clc1cc(Cl)cc(-c2n[nH]cc2C(=NN2CCCC2)c2ccccc2)c1 [Compound 30, N-[[3-(3,5-dichlorophenyl)-1H-pyrazol-4-yl]phenylmethylene]-1-pyrrolidinamine]
- Plant response rating, Barnyardgrass ([1]; Preemergence, 62 g ai/ha): 0
- Plant response rating, Barnyardgrass ([1]; Preemergence, 125 g ai/ha): 0
- Plant response rating, Barnyardgrass ([1]; Preemergence, 250 g ai/ha): 0
- Plant response rating, Barnyardgrass ([1]; Preemergence, 500 g ai/ha): 0
- Plant response rating, Waterhemp ([2]; Preemergence, 62 g ai/ha): 100
- Plant response rating, Waterhemp ([2]; Preemergence, 125 g ai/ha): 100
- Plant response rating, Waterhemp ([2]; Preemergence, 250 g ai/ha): 100
- Plant response rating, Waterhemp ([2]; Preemergence, 500 g ai/ha): 100
- Plant response rating (0 to 100), Goosegrass ([3]; 31 g ai/ha): 0
- Plant response rating (0 to 100), Goosegrass ([3]; 62 g ai/ha): 0
- Plant response rating (0 to 100), Goosegrass ([3]; 125 g ai/ha): 0
- Plant response rating, Goosegrass ([3]; 250 g ai/ha, scale 0 to 100): 0
- Plant response rating (0 to 100), Bromegrass, Downy ([4]; 31 g ai/ha): 0
- Plant response rating (0 to 100), Bromegrass, Downy ([4]; 62 g ai/ha): 0
- Plant response rating, Bromegrass, Downy ([4]; 125 g ai/ha): 0
- Plant response rating, Bromegrass, Downy ([4]; 250 g ai/ha): 0
- Plant response rating (0 to 100), Deadnettle ([5]; 31 g ai/ha): 0
- Plant response rating (0 to 100), Deadnettle ([5]; 62 g ai/ha): 0
- Plant response rating (0 to 100), Deadnettle ([5]; 125 g ai/ha): 0
- Plant response rating, Deadnettle ([5]; 250 g ai/ha, scale 0 to 100): 0
- Plant response rating (0 to 100), Windgrass ([6]; 62 g ai/ha): 0
- Plant response rating (0 to 100), Windgrass ([6]; 125 g ai/ha): 0
- Plant response rating, Windgrass ([6]; 250 g ai/ha, scale 0 to 100): 0
- Plant response rating (0 to 100), Foxtail, Green ([7]; 31 g ai/ha): 0
- Plant response rating (0 to 100), Foxtail, Green ([7]; 62 g ai/ha): 0
- Plant response rating (0 to 100), Foxtail, Green ([7]; 125 g ai/ha): 0
- Plant response rating, Foxtail, Green ([7]; 250 g ai/ha, scale 0 to 100): 0
- Plant response rating (0 to 100), Cocklebur [8]: 10
- Plant response rating (0 to 100), Cupgrass, Woolly ([9]; 31 g ai/ha): 0
- Plant response rating (0 to 100), Cupgrass, Woolly ([9]; 62 g ai/ha): 0
- Plant response rating (0 to 100), Cupgrass, Woolly ([9]; 125 g ai/ha): 0
- Plant response rating, Cupgrass, Woolly ([9]; 250 g ai/ha, scale 0 to 100): 0
- Plant response rating (0 to 100), Surinam Grass ([10]; 62 g ai/ha): 0
- Plant response rating (0 to 100), Surinam Grass ([10]; 125 g ai/ha): 0
- Plant response rating, Surinam Grass ([10]; 250 g ai/ha, scale 0 to 100): 0
- Plant response rating (0 to 100), Canarygrass ([11]; 31 g ai/ha): 0
- Plant response rating (0 to 100), Canarygrass ([11]; 62 g ai/ha): 0
- Plant response rating (0 to 100), Canarygrass ([11]; 125 g ai/ha): 0
- Plant response rating, Canarygrass ([11]; 250 g ai/ha, scale 0 to 100): 0
- Plant response rating (0 to 100), Barley ([12]; 31 g ai/ha): 0
- Plant response rating (0 to 100), Barley ([12]; 62 g ai/ha): 0
- Plant response rating, Barley ([12]; 125 g ai/ha): 0
- Plant response rating, Barley ([12]; 250 g ai/ha): 0
- Plant response rating (0 to 100), Bermudagrass ([13]; 31 g ai/ha): 0
- Plant response rating (0 to 100), Bermudagrass ([13]; 62 g ai/ha): 0
- Plant response rating, Bermudagrass ([13]; 125 g ai/ha): 0
- Plant response rating, Bermudagrass ([13]; 250 g ai/ha): 0
